Test results reported in patent publication US9469650B2, “Melampomagnolide B derivatives” (BOARD OF TRUSTEES OF THE UNIVERSITY OF ARKANSAS, priority 2013, dated 2016).

Experiments:
M14 = assay: panel of 60 human tumor cell lines, growth inhibition (Melanoma); conditions: Homo sapiens
MDA-MB-468 = assay: panel of 60 human tumor cell lines, growth inhibition (Breast Cancer); conditions: Homo sapiens
NCI-H322M = assay: panel of 60 human tumor cell lines, growth inhibition (Non-Small Cell Lung Cancer); conditions: Homo sapiens
UACC-62 = assay: panel of 60 human tumor cell lines, growth inhibition (Melanoma); conditions: Homo sapiens
HT29 = assay: panel of 60 human tumor cell lines, growth inhibition (Colon Cancer); conditions: for Percent Growth: HT29
SNB-75 = assay: panel of 60 human tumor cell lines, growth inhibition (CNS Cancer); conditions: Homo sapiens
SNB-19 = assay: as above; conditions: Homo sapiens
U251 = assay: as above; conditions: Homo sapiens
A549/ATCC = assay: panel of 60 human tumor cell lines, growth inhibition (Non-Small Cell Lung Cancer); conditions: Homo sapiens
NCI-H23 = assay: as above; conditions: Homo sapiens
SK-MEL-28 = assay: panel of 60 human tumor cell lines, growth inhibition (Melanoma); conditions: Homo sapiens
PC-3 = assay: panel of 60 human tumor cell lines, growth inhibition (Prostate Cancer); conditions: Homo sapiens
A498 = assay: panel of 60 human tumor cell lines, growth inhibition (Renal Cancer); conditions: Homo sapiens
SR = assay: panel of 60 human tumor cell lines, growth inhibition (Leukemia); conditions: Homo sapiens
TK-10 = assay: panel of 60 human tumor cell lines, growth inhibition (Renal Cancer); conditions: Homo sapiens; for GI50: TK-10, TK-10
SF-295 = assay: panel of 60 human tumor cell lines, growth inhibition (CNS Cancer); conditions: Homo sapiens
OVCAR-3 = assay: panel of 60 human tumor cell lines, growth inhibition (Ovarian Cancer)

C=C1C(=O)O[C@H]2[C@H]1CC/C(COC(=O)NCCN1CCOCC1)=C\CC[C@@]1(C)O[C@@H]21 [JVM 57, ((1aR,7aS,10aS,10bS,E)-1a-methyl-8-methylene-9-oxo-1a,2,3,6,7,7a,8,9,10a,10b-decahydrooxireno[2′,3′:9,10]-cyclodeca[1,2-b]furan-5-yl)-methyl(2-morpholinoethyl)carbamate] was tested, and the GI50 (M14; M14) was 7.97 µM, the CC50 (M14; M14, read-out: LC50) was 58.5 µM and the IC (TGI) (M14; M14, read-out: TGI) was 23.1 µM. It also gave a GI50 (MDA-MB-468; MDA-MB-468) of 3.26 µM, a CC50 (MDA-MB-468; MDA-MB-468, read-out: LC50) of 59.1 µM and an IC (TGI) (MDA-MB-468; MDA-MB-468, read-out: TGI) of 14.6 µM. The GI50 (NCI-H322M) was 37.9 µM, the CC50 (NCI-H322M; read-out: LC50) was greater than 100 µM and the IC (TGI) (NCI-H322M; read-out: TGI) was greater than 100 µM. The GI50 (UACC-62; UACC-62) was 11.8 µM, the CC50 (UACC-62; UACC-62, read-out: LC50) was 53.2 µM and the IC (TGI) (UACC-62; UACC-62, read-out: TGI) was 25.1 µM. The “Percent Growth” value (HT29; Log10 Concentration −4.0) was −74%, the “Percent Growth” value (HT29; Log10 Concentration −5.0) was 43% and the “Percent Growth” value (HT29; Log10 Concentration −6.0) was 110%. The “Percent Growth” value (HT29; Log10 Concentration −7.0) was 108%, the “Percent Growth” value (HT29; Log10 Concentration −8.0) was 102% and the GI50 (HT29; Homo sapiens, HT-29) was 7.83 µM. The CC50 (HT29; Homo sapiens, HT-29, read-out: LC50) was 62.7 µM, the IC (TGI) (HT29; Homo sapiens, HT-29, read-out: TGI) was 23.3 µM and the GI50 (SNB-75; SNB-75) was 19.5 µM. It also gave a CC50 (SNB-75; SNB-75, read-out: LC50) greater than 100 µM, an IC (TGI) (SNB-75; SNB-75, read-out: TGI) greater than 100 µM and a GI50 (SNB-19; SNB-19) of 45.3 µM. For the same compound, the CC50 (SNB-19; SNB-19, read-out: LC50) was greater than 100 µM, the IC (TGI) (SNB-19; SNB-19, read-out: TGI) was greater than 100 µM and the GI50 (U251; U-251) was 42.9 µM. The CC50 (U251; U-251, read-out: LC50) was greater than 100 µM, the IC (TGI) (U251; U-251, read-out: TGI) was greater than 100 µM and the GI50 (A549/ATCC; A549) was 28.5 µM. For the same compound, the CC50 (A549/ATCC; A549, read-out: LC50) was greater than 100 µM, the IC (TGI) (A549/ATCC; A549, read-out: TGI) was greater than 100 µM and the GI50 (NCI-H23; NCI-H23) was 15.8 µM. It also gave a CC50 (NCI-H23; NCI-H23, read-out: LC50) of 84.3 µM, an IC (TGI) (NCI-H23; NCI-H23, read-out: TGI) of 36.5 µM and a GI50 (SK-MEL-28; SK-MEL-28) of 10.5 µM. It also gave a CC50 (SK-MEL-28; SK-MEL-28, read-out: LC50) of 47.2 µM, an IC (TGI) (SK-MEL-28; SK-MEL-28, read-out: TGI) of 22.2 µM and a GI50 (PC-3; PC-3) of 16.6 µM. For the same compound, the CC50 (PC-3; PC-3, read-out: LC50) was 85.8 µM, the IC (TGI) (PC-3; PC-3, read-out: TGI) was 37.8 µM and the GI50 (A498; A498) was 19.4 µM. The CC50 (A498; A498, read-out: LC50) was greater than 100 µM, the IC (TGI) (A498; A498, read-out: TGI) was 57 µM and the GI50 (SR) was 3.65 µM. For the same compound, the CC50 (SR; read-out: LC50) was greater than 100 µM, the IC (TGI) (SR; read-out: TGI) was 25.1 µM and the GI50 (TK-10) was 3.93 µM. It also gave a GI50 (TK-10; 5-dose assay) of 3.93 µM, a CC50 (TK-10; TK-10, read-out: LC50) of 38.9 µM and an IC (TGI) (TK-10; TK-10, read-out: TGI) of 13.9 µM. The GI50 (SF-295; SF-295) was greater than 100 µM, the CC50 (SF-295; SF-295, read-out: LC50) was greater than 100 µM and the IC (TGI) (SF-295; SF-295, read-out: TGI) was greater than 100 µM. The GI50 (OVCAR-3; Homo sapiens, OVCAR-3) was 6.2 µM, the CC50 (OVCAR-3; Homo sapiens, OVCAR-3, read-out: LC50) was 44.1 µM and the IC (TGI) (OVCAR-3; Homo sapiens, OVCAR-3, read-out: TGI) was 18.7 µM. For the same compound, the “Percent Growth” value (OVCAR-3; OVCAR-3, Log10 Concentration −4.0) was −98%, the “Percent Growth” value (OVCAR-3; OVCAR-3, Log10 Concentration −5.0) was 37% and the “Percent Growth” value (OVCAR-3; OVCAR-3, Log10 Concentration −6.0) was 101%. For the same compound, the “Percent Growth” value (OVCAR-3; OVCAR-3, Log10 Concentration −7.0) was 109% and the “Percent Growth” value (OVCAR-3; OVCAR-3, Log10 Concentration −8.0) was 109%.
